In patent publication US8586588B2, “Aryl pyridazinone derivatives and their use as H3 receptor ligands” (Cephalon, Inc., priority 2006, dated 2013):
Structures can show the parent of a compound that is named as a salt.

Assays:
human H3 receptor = biological target: T1, human H3 receptor (Homo sapiens, UniProt Q9Y5N1); test: Human H3 radioligand binding ([3H]-N-alpha-methylhistamine, CHO cell membranes, SPA); settings: Table B, binding constant as letter class
T1 construct: expressed in transfected cells
In short: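 CHO cell membranes expressing human H3 (10 μg protein/well) incubated 4 h at room temperature, in the dark, with ~1 nM [3H]-N-alpha-methylhistamine, compounds (0.01 nM-30 μM) and SPA beads in 50 mM Tris HCl pH 7.4, 5 mM MgCl2, 0.1% BSA. Non-specific binding defined with 10 μM clobenpropit.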

[1] = biological target: T2, rat histamine H3 receptor (Rattus norvegicus, UniProt Q9QYN8); test: Rat H3 radioligand binding ([3H]-N-alpha-methylhistamine, CHO-A3 cell membranes, SPA); settings: Table B, binding constant as letter class; read-out: rat H3 Ki
T2 construct: encoding the entire 445-amino-acid rat histamine H3 receptor; expressed in transfected cells
In short: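 Membranes from CHO-A3 cells stably expressing rat H3 (10 μg protein) incubated 4 h at room temperature in 50 mM Tris-HCl pH 7.4, 5 mM MgCl2, 0.1% BSA with ~1 nM [3H]-N-alpha-methylhistamine and compound (0.01 nM-30 μM). Bound radioligand read by scintillation proximity; nonspecific binding with 10 μM clobenpropit.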

T2 sequence (Q9QYN8 whole entry): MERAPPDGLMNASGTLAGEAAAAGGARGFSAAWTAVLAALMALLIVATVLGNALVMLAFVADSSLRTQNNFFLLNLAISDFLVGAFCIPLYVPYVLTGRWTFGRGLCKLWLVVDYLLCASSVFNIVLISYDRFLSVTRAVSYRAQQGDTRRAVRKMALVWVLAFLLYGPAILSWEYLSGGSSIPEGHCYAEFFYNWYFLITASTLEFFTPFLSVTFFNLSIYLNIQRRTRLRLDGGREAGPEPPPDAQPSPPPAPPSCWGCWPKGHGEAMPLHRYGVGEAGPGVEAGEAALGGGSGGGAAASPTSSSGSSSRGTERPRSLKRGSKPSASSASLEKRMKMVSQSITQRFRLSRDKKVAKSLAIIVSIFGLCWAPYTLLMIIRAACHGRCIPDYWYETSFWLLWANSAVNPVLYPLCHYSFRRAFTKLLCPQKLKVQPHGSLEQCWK
T1 sequence (Q9Y5N1 whole entry): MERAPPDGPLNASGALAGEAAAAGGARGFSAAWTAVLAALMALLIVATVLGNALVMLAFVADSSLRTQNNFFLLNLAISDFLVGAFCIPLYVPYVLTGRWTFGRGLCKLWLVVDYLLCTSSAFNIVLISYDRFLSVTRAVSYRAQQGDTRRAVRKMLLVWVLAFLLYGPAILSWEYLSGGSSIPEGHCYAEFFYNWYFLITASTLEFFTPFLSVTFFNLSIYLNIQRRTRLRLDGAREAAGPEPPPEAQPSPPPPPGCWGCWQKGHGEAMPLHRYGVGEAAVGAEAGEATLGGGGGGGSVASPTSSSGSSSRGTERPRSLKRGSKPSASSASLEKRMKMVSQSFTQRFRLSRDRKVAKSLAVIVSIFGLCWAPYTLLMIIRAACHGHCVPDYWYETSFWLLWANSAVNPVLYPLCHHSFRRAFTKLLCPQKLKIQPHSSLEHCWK

Row | Ki (human H3 receptor) [nM] | Ki [1] [nM] | Compound
1 | > 1000 | > 1000 | O=c1ccc(-c2ccc(O[C@@H]3CCN(C4CCC4)C3)cc2)n[nH]1 [Example 161, 6-[4-((R)-1-Cyclobutyl-pyrrolidin-3-yloxy)-phenyl]-2H-pyridazin-3-one]
2 | 501 to 1000 | > 1000 | O=C1CCC(c2ccc(O[C@@H]3CCN(C4CCCC4)C3)cc2)=NN1 [Example 162, 6-[4-((R)-1-Cyclopentyl-pyrrolidin-3-yloxy)-phenyl]-4,5-dihydro-2H-pyridazin-3-one]
3 | 0.1 to 100 | 0.1 to 100 | O=C1NN=C(c2ccc(OC3CCN(C4CCC4)CC3)cc2)C2CCC12 (stereo not shown) [Example 172, 5-[4-(1-Cyclobutyl-piperidin-4-yloxy)-phenyl]-3,4-diaza-bicyclo[4.2.0]oct-4-en-2-one]
4 | 0.1 to 100 | 0.1 to 100 | C[C@@H]1CCCN1CCCOc1ccc(C2=NNC(=O)CC2)cc1 [Example 178, 6-{4-[3-((R)-2-Methyl-pyrrolidin-1-yl)-propoxy]-phenyl}-4,5-dihydro-2H-pyridazin-3-one]
5 | 0.1 to 100 | 0.1 to 100 | C[C@@H]1CCCN1CCCOc1ccc(C2=NN(c3ccccn3)C(=O)CC2)cc1 [Example 183, 6-{4-[3-((R)-2-Methyl-pyrrolidin-1-yl)-propoxy]-phenyl}-2-pyridin-2-yl-4,5-dihydro-2H-pyridazin-3-one]
6 | 0.1 to 100 | 0.1 to 100 | CC1CC(=O)N(c2ccccn2)N=C1c1ccc(OC2CCN(C3CCC3)CC2)cc1 (stereo not shown) [Example 193, 6-[4-(1-Cyclobutyl-piperidin-4-yloxy)-phenyl]-5-methyl-2-pyridin-2-yl-4,5-dihydro-2H-pyridazin-3-one]
7 | 0.1 to 100 | 0.1 to 100 | Cc1cc(OCCCN2CCC[C@H]2C)ccc1C1=NNC(=O)CC1 [Example 199, 6-{(R)-2-Methyl-4-[3-(2-methyl-pyrrolidin-1-yl)-propoxy]-phenyl}-4,5-dihydro-2H-pyridazin-3-one]
8 | 0.1 to 100 | 101 to 500 | Cc1ccc(=O)n(-c2ccc(OCCCN3CCC[C@H]3C)cc2)n1 [Example 201, 6-Methyl-2-{4-[3-((R)-2-methyl-pyrrolidin-1-yl)-propoxy]-phenyl}-2H-pyridazin-3-one]
9 | 0.1 to 100 | 0.1 to 100 | O=c1ccc(-c2ccccc2)nn1-c1ccc(OC2CCN(C3CCC3)CC2)nc1 [Example 203, 2-[6-(1-Cyclobutyl-piperidin-4-yloxy)-pyridin-3-yl]-6-phenyl-2H-pyridazin-3-one]
10 | 101 to 500 | 101 to 500 | Cc1onc2c(=O)[nH]nc(-c3ccc(OC4CCN(C5CCC5)CC4)cc3)c12 [Example 205, 4-[4-(1-Cyclobutyl-piperidin-4-yloxy)-phenyl]-3-methyl-6H-isoxazolo[3,4-d]pyridazin-7-one]
11 | > 1000 | > 1000 | Cc1onc2c(=O)[nH]nc(-c3ccc(OC4CCNCC4)cc3)c12 [Example 206, 3-methyl-4-[4-(piperidin-4-yloxy)phenyl]-6h-isoxazolo-[3,4-d]pyridazin-7-one TFA salt]
12 | 0.1 to 100 | 0.1 to 100 | C[C@@H]1CCCN1CCCOc1ccc2c(c1)CCc1cc(=O)[nH]nc1-2 [Example 209, 8-[3-((R)-2-Methyl-pyrrolidin-1-yl)-propoxy]-5,6-dihydro-2H-benzo[h]cinnolin-3-one]
13 | 0.1 to 100 | 0.1 to 100 | C[C@@H]1CCCN1CCCOc1ccc2c(c1)CCC1CC(=O)NN=C21 (stereo partly shown) [Example 212, 8-[3-(2-Methyl-pyrrolidin-1-yl)-propoxy]-4,4a,5,6-tetrahydro-2H-benzo[h]cinnolin-3-one]
14 | 101 to 500 | 101 to 500 | COc1cc(OCCCN2CCC[C@H]2C)ccc1-c1ccc(=O)[nH]n1 [Example 213, 6-{2-Methoxy-4-[3-((R)-2-methyl-pyrrolidin-1-yl)-propoxy]-phenyl}-2H-pyridazin-3-one]
15 | 0.1 to 100 | 0.1 to 100 | C[C@@H]1CCCN1CCCOc1ccc(-c2ccc(=O)n(-c3ccccn3)n2)cc1 [Example 215, 6-{4-[3-((R)-2-Methyl-pyrrolidin-1-yl)-propoxy]-phenyl}-2-pyridin-2-yl-2H-pyridazin-3-one]
16 | 0.1 to 100 | 0.1 to 100 | C[C@@H]1CCCN1CCCOc1ccc(C2=NNC(=O)C(c3ccccn3)C2)cc1 (stereo partly drawn) [Example 216, 6-{4-[3-((R)-2-Methyl-pyrrolidin-1-yl)-propoxy]-phenyl}-4-pyridin-2-yl-4,5-dihydro-2H-pyridazin-3-one]
17 | 0.1 to 100 | 0.1 to 100 | C[C@@H]1CCCN1CCCOc1ccc(-c2cc(-c3ccccn3)c(=O)[nH]n2)cc1 [Example 217, 6-{4-[3-((R)-2-Methyl-pyrrolidin-1-yl)-propoxy]-phenyl}-4-pyridin-2-yl-2H-pyridazin-3-one]
18 | 0.1 to 100 | 0.1 to 100 | C[C@@H]1CCCN1CCCOc1ccc2c(c1)CCc1n[nH]c(=O)cc1-2 [Example 218, 8-[3-((R)-2-Methyl-pyrrolidin-1-yl)-propoxy]-5,6-dihydro-3H-benzo[f]cinnolin-2-one]

Row | Ki (human H3 receptor) [nM] | Ki [1] [nM] | Compound
19 | 0.1 to 100 | 0.1 to 100 | O=C1CCC(c2ccc(OC3CCN(C4CCC4)CC3)cc2F)=NN1 [Example 219, 6-[4-(1-Cyclobutyl-piperidin-4-yloxy)-2-fluoro-phenyl]-4,5-dihydro-2H-pyridazin-3-one]
20 | 0.1 to 100 | 0.1 to 100 | C[C@@H]1CCCN1CCCOc1ccc(-c2cn[nH]c(=O)c2)cc1 [Example 223, 5-{4-[3-((R)-2-Methyl-pyrrolidin-1-yl)-propoxy]-phenyl}-2H-pyridazin-3-one]
21 | 0.1 to 100 | 0.1 to 100 | COCn1ncc(-c2ccc(OCCCN3CCC[C@H]3C)cc2C)cc1=O [Example 230, 2-Methoxymethyl-5-{2-methyl-4-[3-((R)-2-methyl-pyrrolidin-1-yl)-propoxyl]-phenyl}-2H-pyridazin-3-one]
22 | 0.1 to 100 | 0.1 to 100 | Cc1cc(OCCCN2CCC[C@H]2C)ccc1-c1cn[nH]c(=O)c1 [Example 231, 5-{2-methyl-4-[3-((R)-2-methyl-pyrrolidin-1-yl)-propoxyl]-phenyl}-2H-pyridazin-3-one]
23 | 0.1 to 100 | 0.1 to 100 | COCn1ncc(-c2ccc(OCCCN3CCCCC3)cc2C)cc1=O [Example 232, 2-Methoxymethyl-5-[2-methyl-4-(3-piperidin-1-yl-propoxy)-phenyl]-2H-pyridazin-3-one]
24 | 0.1 to 100 | 0.1 to 100 | COCn1ncc(-c2ccc(OC3CCN(C4CCC4)CC3)cc2C)cc1=O [Example 234, 5-[4-(1-Cyclobutyl-piperidin-4-yloxy)-2-methyl-phenyl]-2-methoxymethyl-2H-pyridazin-3-one]
25 | 0.1 to 100 | 0.1 to 100 | COCn1ncc(-c2ccc(OCCCN3CCC[C@H]3C)cc2)c(OC)c1=O [Example 235, 4-Methoxy-2-methoxymethyl-5-{4-[3-((R)-2-methyl-pyrrolidin-1-yl)-propoxy]-phenyl}-2H-pyridazin-3-one]
26 | 0.1 to 100 | 0.1 to 100 | COCn1ncc(OC)c(-c2ccc(OCCCN3CCC[C@H]3C)cc2)c1=O [Example 236, 5-Methoxy-2-methoxymethyl-4-{4-[3-((R)-2-methyl-pyrrolidin-1-yl)-propoxy]-phenyl}-2H-pyridazin-3-one]
27 | 0.1 to 100 | 0.1 to 100 | COc1cn[nH]c(=O)c1-c1ccc(OCCCN2CCC[C@H]2C)cc1 [Example 237, 5-Methoxy-4-{4-[3-((R)-2-methyl-pyrrolidin-1-yl)-propoxy]-phenyl}-2H-pyridazin-3-one]
28 | > 1000 | > 1000 | O=c1ccc(-c2ccc(OCCCN3CCOCC3)cc2)n[nH]1 [Example 238, 6-[4-(3-Morpholin-4-yl-propoxy)-phenyl]-2H-pyridazin-3-one]
29 | 0.1 to 100 | 0.1 to 100 | C[C@H]1CCCN1CCCOc1ccc(-c2ccc(=O)[nH]n2)cc1 [Example 239, 6-{4-[3-((S)-2-Methyl-pyrrolidin-1-yl)-propoxy]-phenyl}-2H-pyridazin-3-one]
30 | 0.1 to 100 | 0.1 to 100 | CCN1N=C(c2ccc(OC3CCN(C4CCC4)CC3)cc2)C2CC2C1=O (stereo not shown) [Example 250, 5-[4-(1-Cyclobutyl-piperidin-4-yloxy)-phenyl]-3-ethyl-3,4-diaza-bicyclo[4.1.0]hept-4-en-2-one]
31 | 0.1 to 100 | 0.1 to 100 | CC(C)N1N=C(c2ccc(OC3CCN(C4CCC4)CC3)cc2)C2CC2C1=O (stereo not shown) [Example 251, 5-[4-(1-Cyclobutyl-piperidin-4-yloxy)-phenyl]-3-isopropyl-3,4-diaza-bicyclo[4.1.0]hept-4-en-2-one]
32 | 0.1 to 100 | 0.1 to 100 | CN1N=C(c2ccc(OC3CCN(C4CCC4)CC3)cc2)C2CC2C1=O (stereo not shown) [Example 252, 5-[4-(1-Cyclobutyl-piperidin-4-yloxy)-phenyl]-3-methyl-3,4-diaza-bicyclo[4.1.0]hept-4-en-2-one]
33 | 0.1 to 100 | 0.1 to 100 | O=C1C2CC2C(c2ccc(OC3CCN(C4CCC4)CC3)cc2)=NN1c1ccc(F)cc1 (stereo not shown) [Example 253, 5-[4-(1-Cyclobutyl-piperidin-4-yloxy)-phenyl]-3-(4-fluoro-phenyl)-3,4-diaza-bicyclo[4.1.0]hept-4-en-2-one]
34 | 0.1 to 100 | 0.1 to 100 | O=C1C2CC2C(c2ccc(OC3CCN(C4CCC4)CC3)cc2)=NN1CC(F)(F)F (stereo not shown) [Example 254, 5-[4-(1-Cyclobutyl-piperidin-4-yloxy)-phenyl]-3-(2,2,2-trifluoro-ethyl)-3,4-diaza-bicyclo[4.1.0]hept-4-en-2-one]
35 | 0.1 to 100 | 0.1 to 100 | CN1N=C(c2ccc(OC3CCN(C4CCCC4)CC3)cc2)C2CC2C1=O (stereo not shown) [Example 260, 5-[4-(1-Cyclopentyl-piperidin-4-yloxy)-phenyl]-3-methyl-3,4-diaza-bicyclo[4.1.0]hept-4-en-2-one]
